Test results from patent EP0768085A1, “ANTIBACTERIAL AGENT” (DAIICHI PHARMACEUTICAL CO., LTD., priority 1994, dated 1996).
Converted amounts (≈) assume the structure as drawn.

Tests used:
Format in all cases: cell-based
[1] = system: Staphylococcus aureus 209-P; assay: Antibacterial activity (IC), Mueller-Hinton broth, 96-well microplate (Example 4, Table 39); conditions: 37°C, 18 hours
Procedure: (§1) A suitable amount of a sample was dissolved in dimethylsulfoxide (DMSO), and the resultant solution was diluted with the same amount of sterilized distilled water to prepare a bulk sample of 1,000 µg/ml. Mueller-Hinton broth (product of DIFCO) was dispensed into each well of 96-well microplate. Thereafter, the bulk specimen was added to the first well of a row, and successively diluted (10-fold each time) with sterilized distilled water. Separately, a bacterial cell suspension for the test (Staphylococcus aureus 209-P) which had been cultured in the above-mentioned broth overnight at 37°C was inoculated to each well so that the final inoculation amount of 10^6 CFU/ml was attained. The final concentrations of the samples were 100, 10, and 1 µg/ml.
(§2) The antibacterial action was evaluated by the inhibitory concentration (hereinafter abbreviated as IC) at which propagation of the bacteria cultured at 37°C for 18 hours was inhibited. Inhibition was determined by the turbidity of the medium. The expressions "IC≤100", "≤10", and "≤1" indicate that MIC-equivalent values obtained at the succesive […] dilution of the sample are 100-10 µg/ml, 10-1 µg/ml, and not more than 1 µg/ml, respectively. […] (In the subsequent Examples, the same rule applies correspondingly.) Table 39

[2] = system: Pasteurella multocida (Kobe-6); assay: Antibacterial activity (IC), broth microplate as in Example 4 (Example 6, Table 41); conditions: 18 h, origin pig
Procedure: as §1, §2
In a manner similar to that described in Example 4, antibacterial activity of the invention compound was determined. The bacterium used for the test was Pasteurella Kobe-6 (origin: pig; Pasteurella multocida).

[3] = system: Staphylococcus aureus TI-1; assay: Antibacterial activity (IC), broth microplate as in Example 4 (Example 5, Table 40); conditions: TI1, 18 h
Procedure: as §1, §2
In a manner similar to that described in Example 4, antibacterial activity of the invention compound was determined. The bacterium used for the test was Staphylococcus aureus TI-1.

[4] = system: Bordetella bronchiseptica (SM2-4); assay: Antibacterial activity (IC), broth microplate as in Example 4 (Example 7, Table 42); conditions: 18 h
Procedure: as §1, §2
In a manner similar to that described in Example 4, antibacterial activity of the invention compound was determined. The bacterium used for the test was Bordetella bronchiseptica (SM2-4).

Enterococcus from fish = assay: Antibacterial activity (IC), agar as in Example 8, media with 1.5% NaCl, 25°C (Example 20, Tables 53-55); conditions: for MIC: Enterococcus Seriolicida SE94-002
Procedure: as §2
(§3) A suitable amount of a sample was dissolved in dimethylsulfoxide (DMSO), after which the resulting solution was diluted with the same amount of sterilized distilled water to prepare a bulk sample of 1,000 µg/ml. Separately, a bacterial liquid for the test (methicillin-resistant Staphylococcus aureus (MRSA) isolated from humans) which had been cultured in Mueller-Hinton broth (product of DIFCO) was prepared and inoculated to a Mueller-Hinton agar (product of DIFCO) containing the sample so that the final inoculation amount of 10^6 CFU/ml was achieved. The final concentrations of the samples were 100, 10, and 1 µg/ml.
(§4) After culturing at 37°C for 18 hours, the antibacterial activity was evaluated in terms of IC in a manner similar to that described in Example 4.
(§5) In a manner similar to that described in Example 8, antibacterial activity of a variety of ketonitrile derivatives shown in Tables 53-55 was measured. The bacteria used for the test were Enterococcus and Pasteurella from fish. The culture conditions were such that the media contained 1.5% NaCl, and the culture temperature was 25°C.

Pasteurella from fish = assay: as above; conditions: for MIC: Pasteurella piscicida KP94-02
Procedure: as §2, §3, §4, §5

[5] = system: Staphylococcus aureus (209-P); assay: Antibacterial activity (IC), agar as in Example 8 (Example 15, Table 48); conditions: 18 h
Procedure: as §2, §3, §4
The bacterium used for the test was Staphylococcus aureus (209-P).

[6] = system: methicillin-resistant Staphylococcus aureus (MRSA) from humans; assay: Antibacterial activity (IC), agar as in Example 8 (Example 19, Table 52); conditions: 18 h
Procedure: as §2, §3, §4
In a manner similar to that described in Example 8, antibacterial activity of a variety of ketonitrile derivatives shown in Table 52 was measured. The bacterium used for the test was methicillin-resistant Staphylococcus aureus (MRSA) from humans.

[7] = system: Streptococcus aureus (TI-1); assay: Antibacterial activity (IC), agar as in Example 8 (Example 16, Table 49); conditions: 18 h
Procedure: as §2, §3, §4
In a manner similar to that described in Example 8, antibacterial activity of the invention compound was determined. The bacterium used for the test was […] aureus (TI-1).

[8] = system: Pasteurella multocida (Kobe-6); assay: Antibacterial activity (IC), agar as in Example 8 (Example 17, Table 50); conditions: 18 h, origin pig
Procedure: as §2, §3, §4
In a manner similar to that described in Example 8, antibacterial activity of the invention compound was determined. The bacterium used for the test was Pasteurella Kobe-6 (origin: pig, Pasteurella multocida).

[9] = Enterococcus Seriolicida KG86050
[10] = Enterococcus Seriolicida MS89060
[11] = Enterococcus Seriolicida MS89064
[12] = Enterococcus Seriolicida MS89066
[13] = Enterococcus Seriolicida MS89068
[14] = Enterococcus Seriolicida SE94-001
[15] = Enterococcus Seriolicida SE94-003
[16] = Enterococcus Seriolicida SE94-004
[17] = Enterococcus Seriolicida SE94-005

Work on `COc1cccc(C(C#N)C(=O)C(C)Oc2ccc(Oc3ncc(C(F)(F)F)cc3Cl)cc2)c1` (stereo not shown) [compound 17] yielded an MIC [1] of 10 to 100 µg/mL (≈ 20.4 to 204 µM), an MIC [2] of 10 to 100 µg/mL (≈ 20.4 to 204 µM) and an MIC [3] of 10 to 100 µg/mL (≈ 20.4 to 204 µM).
Work on `CCC(Oc1ccc(Oc2ncc(C(F)(F)F)cc2Cl)cc1)C(=O)C(C#N)c1ccc(Cl)cc1Cl` (stereo not shown) [Compound No. 15] yielded an MIC [1] of 1 to 10 µg/mL (≈ 1.84 to 18.4 µM), an MIC [2] of 10 to 100 µg/mL (≈ 18.4 to 184 µM) and an MIC [3] of 1 to 10 µg/mL (≈ 1.84 to 18.4 µM).
In the case of `CC(Oc1ccc(Oc2ccc(C(F)(F)F)cn2)cc1)C(=O)C(C#N)c1ccc(Cl)cc1Cl` (stereo not shown) [Compound No. 1], the MIC [1] is reported as 1 to 10 µg/mL (≈ 2.02 to 20.2 µM), the MIC [2] is reported as 10 to 100 µg/mL (≈ 20.2 to 202 µM) and the MIC [3] is reported as 1 to 10 µg/mL (≈ 2.02 to 20.2 µM).
`N#CC(C(=O)COc1ccc(Oc2ncc(C(F)(F)F)cc2Cl)cc1)c1ccc(Cl)cc1Cl` (stereo not shown) [compound 9] was tested, and the MIC [4] was 10 to 100 µg/mL (≈ 19.4 to 194 µM).
`CC(Oc1ccc(Oc2ncc(Cl)cc2Cl)cc1)C(=O)C(C#N)c1nc(Cl)cc(Cl)n1` (stereo not shown) [compound 20] was tested, and the MIC [1] was 10 to 100 µg/mL (≈ 20.1 to 201 µM), the MIC [2] was 10 to 100 µg/mL (≈ 20.1 to 201 µM) and the MIC [3] was 1 to 10 µg/mL (≈ 2.01 to 20.1 µM).
For `CC(Oc1cccc(Oc2ccc(Br)cc2F)c1)C(=O)C(C#N)c1cccc(Cl)c1` (stereo not shown) [Compound No. 110, 4-[3-(4-bromo-2-fluorophenoxy)phenoxy]-2-(3-chlorophenyl)-3-oxopentanonitrile], the IC (Enterococcus from fish; Enterococcus Seriolicida HI) was ≤10 (10-1 µg/ml), the IC (Enterococcus from fish; [9]) was ≤10 (10-1 µg/ml) and the IC (Enterococcus from fish; [10]) was ≤10 (10-1 µg/ml). The IC (Enterococcus from fish; [11]) was ≤10 (10-1 µg/ml), the IC (Enterococcus from fish; [12]) was ≤10 (10-1 µg/ml) and the IC (Enterococcus from fish; [13]) was ≤10 (10-1 µg/ml). For the same compound, the IC (Enterococcus from fish; [14]) was ≤10 (10-1 µg/ml), the MIC (Enterococcus from fish) was 1 to 10 µg/mL (≈ 2.05 to 20.5 µM) and the IC (Enterococcus from fish; [15]) was ≤10 (10-1 µg/ml). The IC (Enterococcus from fish; [16]) was ≤10 (10-1 µg/ml), the IC (Enterococcus from fish; [17]) was ≤10 (10-1 µg/ml) and the MIC (Pasteurella from fish) was 10 to 100 µg/mL (≈ 20.5 to 205 µM). For the same compound, the IC (Pasteurella from fish; Pasteurella piscicida KP94-04) was ≤100 (MIC-equivalent values obtained at the succesive 2-fold dilution of the sample are 100-10 µg/ml), the IC (Pasteurella from fish; Pasteurella piscicida KP94-05) was ≤100 (MIC-equivalent values obtained at the succesive 2-fold dilution of the sample are 100-10 µg/ml) and the IC (Pasteurella from fish; Pasteurella piscicida KP94-06) was ≤100 (MIC-equivalent values obtained at the succesive 2-fold dilution of the sample are 100-10 µg/ml). For the same compound, the MIC [5] was 1 to 10 µg/mL (≈ 2.05 to 20.5 µM), the MIC ([6]; MRSA strain 891179) was 1 to 10 µg/mL (≈ 2.05 to 20.5 µM) and the MIC ([6]; MRSA strain 891185) was 1 to 10 µg/mL (≈ 2.05 to 20.5 µM). The MIC ([6]; MRSA strain 891187) was 1 to 10 µg/mL (≈ 2.05 to 20.5 µM), the MIC ([6]; MRSA strain 891192) was 1 to 10 µg/mL (≈ 2.05 to 20.5 µM) and the MIC ([6]; MRSA strain 900048) was 1 to 10 µg/mL (≈ 2.05 to 20.5 µM). The MIC ([6]; MRSA strain 900056) was 1 to 10 µg/mL (≈ 2.05 to 20.5 µM), the MIC [7] was 1 to 10 µg/mL (≈ 2.05 to 20.5 µM) and the MIC [8] was 10 to 100 µg/mL (≈ 20.5 to 205 µM).
For `CC(Oc1cccc(Oc2ccc(Br)cc2F)c1)C(=O)C(C#N)c1cccc(Br)c1` (stereo not shown) [Compound No. 111, 4-[3-(4-bromo-2-fluorophenoxy)phenoxy]-2-(3-bromophenyl)-3-oxopentanonitrile], the IC (Enterococcus from fish; Enterococcus Seriolicida HI) was ≤10 (10-1 µg/ml), the IC (Enterococcus from fish; [9]) was ≤10 (10-1 µg/ml) and the IC (Enterococcus from fish; [10]) was ≤10 (10-1 µg/ml). The IC (Enterococcus from fish; [11]) was ≤10 (10-1 µg/ml), the IC (Enterococcus from fish; [12]) was ≤10 (10-1 µg/ml) and the IC (Enterococcus from fish; [13]) was ≤10 (10-1 µg/ml). For the same compound, the IC (Enterococcus from fish; [14]) was ≤10 (10-1 µg/ml), the MIC (Enterococcus from fish) was 1 to 10 µg/mL (≈ 1.88 to 18.8 µM) and the IC (Enterococcus from fish; [15]) was ≤10 (10-1 µg/ml). The IC (Enterococcus from fish; [16]) was ≤10 (10-1 µg/ml), the IC (Enterococcus from fish; [17]) was ≤10 (10-1 µg/ml) and the MIC (Pasteurella from fish) was 10 to 100 µg/mL (≈ 18.8 to 188 µM). The IC (Pasteurella from fish; Pasteurella piscicida KP94-04) was ≤100 (MIC-equivalent values obtained at the succesive 2-fold dilution of the sample are 100-10 µg/ml), the IC (Pasteurella from fish; Pasteurella piscicida KP94-05) was ≤100 (MIC-equivalent values obtained at the succesive 2-fold dilution of the sample are 100-10 µg/ml) and the IC (Pasteurella from fish; Pasteurella piscicida KP94-06) was ≤100 (MIC-equivalent values obtained at the succesive 2-fold dilution of the sample are 100-10 µg/ml). It also gave an MIC [5] of 1 to 10 µg/mL (≈ 1.88 to 18.8 µM), an MIC ([6]; MRSA strain 891179) of 1 to 10 µg/mL (≈ 1.88 to 18.8 µM) and an MIC ([6]; MRSA strain 891185) of 1 to 10 µg/mL (≈ 1.88 to 18.8 µM). For the same compound, the MIC ([6]; MRSA strain 891187) was 1 to 10 µg/mL (≈ 1.88 to 18.8 µM), the MIC ([6]; MRSA strain 891192) was 1 to 10 µg/mL (≈ 1.88 to 18.8 µM) and the MIC ([6]; MRSA strain 900048) was 1 to 10 µg/mL (≈ 1.88 to 18.8 µM). It also gave an MIC ([6]; MRSA strain 900056) of 1 to 10 µg/mL (≈ 1.88 to 18.8 µM), an MIC [7] of 1 to 10 µg/mL (≈ 1.88 to 18.8 µM) and an MIC [8] of 10 to 100 µg/mL (≈ 18.8 to 188 µM).
